Test results as given in ChEMBL document CHEMBL1201862, “PubChem BioAssay data set” (2004).
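The compound was tested at five concentrations on cells cultured in 96-well plates, with a 48-hour exposure period. Abbreviation: GI50, concentration required for 50% inhibition of growth.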 Active and inactive are the calls of the source. Rule as the data show it: active = GI50 up to about 1.1 µM and inactive = higher.

Legend:
Assay in all cases: DTP human tumour cell line panel, 48 h
[1] = tested on: SK-MEL-28
[2] = tested on: M14
[3] = tested on: A549
[4] = tested on: 786-0
[5] = tested on: RPMI-8226
[6] = tested on: OVCAR-3
[7] = tested on: HOP-62
[8] = tested on: OVCAR-4
[9] = tested on: NCI-H226
[10] = tested on: SNB-75
[11] = tested on: OVCAR-5
[12] = tested on: SK-MEL-2
[13] = tested on: OVCAR-8
[14] = tested on: ACHN
[15] = tested on: K562
[16] = tested on: HOP-92

Compound | GI50 [1] | GI50 [2] | GI50 [3] | GI50 [4] | GI50 [5] | GI50 [6] | GI50 [7] | GI50 [8] | GI50 [9] | GI50 [10] | GI50 [11] | GI50 [12] | GI50 [13] | GI50 [14] | GI50 [15] | GI50 [16]
O=C1c2ccccc2C(=O)c2sc(Nc3cccc(Cl)c3)nc21 | 1.81 µM (inactive) | 1.82 µM (inactive) | 2.21 µM (inactive) | 1.56 µM (inactive) | 0.966 µM (active) | 1.12 µM (active) | 1.82 µM (inactive) | 1.45 µM (inactive) | 3.96 µM (inactive) | 1.82 µM (inactive) | 2.22 µM (inactive) | 1.79 µM (inactive) | 1.6 µM (inactive) | 1.61 µM (inactive) | 1.57 µM (inactive) | –
O=c1c2ccccc2c(=O)c2c1cc(Cl)c1[nH]c3c([nH]c12)c(Cl)cc1c(=O)c2ccccc2c(=O)c13 | > 100 µM (inactive) | > 100 µM (inactive) | > 100 µM (inactive) | > 100 µM (inactive) | > 100 µM (inactive) | > 100 µM (inactive) | > 100 µM (inactive) | > 100 µM (inactive) | > 100 µM (inactive) | > 100 µM (inactive) | > 100 µM (inactive) | > 100 µM (inactive) | > 100 µM (inactive) | > 100 µM (inactive) | > 100 µM (inactive) | –
O/N=C1/C(=C/c2ccc3c(c2)OCO3)CCCC1C(NO)c1ccc2c(c1)OCO2 (stereo not given) | 21.7 µM (inactive) | 19.5 µM (inactive) | 29.9 µM (inactive) | 28.9 µM (inactive) | 18.8 µM (inactive) | 14.6 µM (inactive) | 21.1 µM (inactive) | 24.6 µM (inactive) | – | 27.2 µM (inactive) | – | 21.4 µM (inactive) | 24.6 µM (inactive) | 31.6 µM (inactive) | 24.9 µM (inactive) | –
CC(=O)C(CN(C)Cc1ccccc1)C(c1ccccc1)c1c(O)c2ccccc2oc1=O (stereo not given) | > 100 µM (inactive) | > 100 µM (inactive) | > 100 µM (inactive) | > 100 µM (inactive) | 58.6 µM (inactive) | – | > 100 µM (inactive) | > 100 µM (inactive) | 10.4 µM (inactive) | > 100 µM (inactive) | > 100 µM (inactive) | > 100 µM (inactive) | > 100 µM (inactive) | > 100 µM (inactive) | > 100 µM (inactive) | 31.9 µM (inactive)
Cc1cc(NS(=O)(=O)c2ccc(Nc3c4ccccc4nc4c(C(=O)N5CCN(CCO)CC5)ccc(Cl)c34)cc2)no1 | > 100 µM (inactive) | > 100 µM (inactive) | > 100 µM (inactive) | > 100 µM (inactive) | 70.1 µM (inactive) | > 100 µM (inactive) | > 100 µM (inactive) | > 100 µM (inactive) | > 100 µM (inactive) | 29.6 µM (inactive) | > 100 µM (inactive) | 42.1 µM (inactive) | > 100 µM (inactive) | – | 48.4 µM (inactive) | > 100 µM (inactive)
COc1cc(OC)c(SSCCCCS(=O)O)c(OC)c1 | 15 µM (inactive) | 14.3 µM (inactive) | 19 µM (inactive) | 18.7 µM (inactive) | – | 15.1 µM (inactive) | 26.2 µM (inactive) | 14.3 µM (inactive) | – | 10.6 µM (inactive) | 16.6 µM (inactive) | 19.5 µM (inactive) | 16 µM (inactive) | 16.1 µM (inactive) | 17.4 µM (inactive) | –
CCN(CC)[C@@H]1c2cc3c(cc2C(c2cc(OC)c(O)c(OC)c2)C2C(=O)CO[C@@H]21)OCO3 (stereo not given in full) | > 100 µM (inactive) | > 100 µM (inactive) | > 100 µM (inactive) | > 100 µM (inactive) | > 100 µM (inactive) | – | > 100 µM (inactive) | > 100 µM (inactive) | > 100 µM (inactive) | > 100 µM (inactive) | > 100 µM (inactive) | > 100 µM (inactive) | > 100 µM (inactive) | > 100 µM (inactive) | > 100 µM (inactive) | > 100 µM (inactive)
O=C(O)CN(c1ccccc1)S(=O)(=O)c1cccc([N+](=O)[O-])c1 | > 100 µM (inactive) | > 100 µM (inactive) | > 100 µM (inactive) | > 100 µM (inactive) | > 100 µM (inactive) | > 100 µM (inactive) | – | > 100 µM (inactive) | > 100 µM (inactive) | > 100 µM (inactive) | > 100 µM (inactive) | > 100 µM (inactive) | > 100 µM (inactive) | > 100 µM (inactive) | > 100 µM (inactive) | > 100 µM (inactive)
C[N+](C)(C)CC1CCCC(C[N+](C)(C)C)C1=NO (stereo not given) | > 100 µM (inactive) | > 100 µM (inactive) | > 100 µM (inactive) | > 100 µM (inactive) | > 100 µM (inactive) | > 100 µM (inactive) | – | > 100 µM (inactive) | > 100 µM (inactive) | > 100 µM (inactive) | > 100 µM (inactive) | > 100 µM (inactive) | > 100 µM (inactive) | > 100 µM (inactive) | > 100 µM (inactive) | –
